Publication PMC6527858, “FABP1 controls hepatic transport and biotransformation of Δ^9-THC” (Scientific Reports, 2019)
Read-outs that look alike come from different tables or passages of the source.

Key:
human FABP1 [1] = target: T1, human FABP1 (Homo sapiens, UniProt P07148); test: DAUDA fluorescence displacement binding assay; details: for maximal displacement of the fluorescent probe DAUDA: maximal effect in the tested concentration range
T1 construct: His tag (N); host or cells: BL21(DE3) Escherichia coli
T1 sequence (P07148 1-127): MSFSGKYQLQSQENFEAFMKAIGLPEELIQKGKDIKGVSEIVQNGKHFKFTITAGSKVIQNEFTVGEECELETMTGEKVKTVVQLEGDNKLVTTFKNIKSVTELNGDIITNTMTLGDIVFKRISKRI
Protocol: Human FABP1 in a pNIC28-Bsa4 vector was obtained from Addgene (plasmid #42344; Addgene, Cambridge, MA, USA). Following sequence verification the construct was transformed into BL21(DE3) Escherichia coli for expression. The recombinant FABP1 protein was purified by nickel-affinity chromatography as described previously. Residual endogenous bacterial lipids were stripped from the purified protein by incubation in a column of hydroxyalkoxypropyl-dextran (Sigma Chemical Co., St Louis, MO, USA) for 1 hour at 37 °C.
Binding assays were carried out in 96-well Costar® plates (Corning Life Science, Kennebunk, ME, USA). FABP1 (3 μM) was incubated with DAUDA (500 nM), in binding assay buffer (30 mM Tris-HCl, 100 mM NaCl, pH 7.6). Competitor test compounds (0.1–500 μM) were then introduced to the well, mixed, and the system was allowed to equilibrate for 20 minutes at 25 °C in the dark. All experimental conditions were tested in triplicate. […] Loss of fluorescence intensity was monitored with an F5 Filtermax Multi-Mode Microplate Reader (Molecular Devices, Sunnyvale, CA, USA) using excitation/emission wavelengths = 345/535 nm. Following background subtraction, raw fluorescence intensity values were normalized and fit to a one-site competition binding analysis using the Graphpad Prism software.

[2] = THC pharmacokinetics in wild-type and FABP1-KO mice (LC-MS/MS of brain and plasma); details: THC 10 mg/kg i.p.; for AUC: 0-24 h
Protocol: The pharmacokinetics of THC were subsequently examined to determine whether FABP1 regulates THC biotransformation in vivo. Wild-type and FABP1-KO mice were administered a single dose of THC (10 mg/kg, i.p.) and blood plasma and brains were harvested at several time points during a 24-hour time course (0, 0.5, 1, 2, 3, 4, 6, 7, and 24 hours post-THC). Levels of THC and its major primary and secondary metabolites (11-OH-THC and THC-COOH) were subsequently quantified by LC-MS/MS.
Mice were administered THC (10 mg/kg, i.p.) and plasma and brain samples were collected at the following time points: 0, 0.5, 1, 2, 3, 4, 6, 7, 24 hours. Tissues were immediately placed on dry ice and stored at −80 °C until processing. The AUC from time 0 to 24 h was calculated by the trapezoidal rule.
The tissues were rapidly thawed, spiked with 25 μl deuterated internal standard solution (containing THC-d3, 11-OH-THC-d3, and THC-COOH-d3; 5 ng/mL each, in methanol) (Cerillient Corporation, Round Rock, TX, USA) and homogenized on ice in Tris, pH 8.0. Protein precipitation was performed by adding two volumes ice-cold acetonitrile drop-wise while vortexing, centrifuged at 10,000 RCF for 10 minutes at 4 °C, and stored overnight at −20 °C to allow time for complete phase separation. The organic phase was transferred to a new glass tube and dried down under a steady stream of argon gas. The dried samples were resuspended in 100 μl 1:1 acetonitrile:ddH2O and submitted to the Stony Brook Proteomics Center for LC-MS/MS quantification of THC and THC metabolites.

[3] = system: locomotor activity of wild-type and FABP1-KO mice; test: Home-cage spontaneous locomotor activity (photobeam system); format: in vivo, mouse; details: THC 10 mg/kg i.p., 12 hour period, both sexes
Protocol: (§1) Hypothermia and spontaneous locomotor activity were assessed over a 12 hour period following a single intraperitoneal (i.p.) injection of 10 mg/kg THC or vehicle (1:1:18 DMSO:Cremophor-EL:saline) to naïve mice. This dose was selected because it produces submaximal cannabimimetic effects and potentiation of THC effects is unlikely to be hampered by a ceiling effect[33],[34]. All mice were kept on a 12/12 hour light/dark cycle and THC was administered immediately prior to the dark phase to control for circadian effects. […] Therefore, in the present study THC pharmacodynamics were independently assessed in mice of both genders.
Locomotor activity was measured by the home-cage photobeam activity system (San Diego Instruments, San Diego, CA, USA). In this system each mouse home-cage was surrounded by a 4 × 8 photobeam array that detected and recorded movements in the X and Y directions. The animals were first conditioned to the cages in the testing room for one week to avoid novelty induced changes in locomotor activity. THC or vehicle were injected 10 minutes prior to the onset of the dark cycle and motility data was recorded over the next 12 hour period.

[4] = system: body temperature of wild-type and FABP1-KO mice; test: THC-induced hypothermia (implanted iButton Thermocron core temperature); format: in vivo, mouse; details: THC 10 mg/kg i.p.
Protocol: as §1
Mice were anesthetized with an i.p. injection of a surgical mixture of ketamine (100 mg/kg) and xylazine (10 mg/kg). Thermocron iButton® (Dallas Semiconductor Company, Dallas, TX, USA) temperature data loggers were sterilized with 70% ethanol and surgically implanted into the abdominal cavities. The mice were permitted to recover from surgery for at least one week prior to being subjected to any experiments. The factory calibrated thermocrons were programmed to record temperature measurements every three minutes with 0.5 °C accuracy and 0.0625 °C precision.

human FABP1 [5] = target: T1, human FABP1; test: DAUDA probe saturation binding to FABP1 (probe Kd determination); details: FABP1 1 μM, DAUDA 0–16 μM
Protocol: Recombinant human FABP1 (1 μM) was titrated with DAUDA (0–16 μM). The raw fluorescence intensity at each data point was corrected by subtracting the signal from each respective probe concentration in the absence of protein. Kd and Bmax were then calculated by fitting the titration curve to the single-site saturation binding equation [Y = Bmax*X/(Kd + X)] using the GraphPad Prism software (Prism version 7.0 for Mac OS: Graphpad software Incorporated, La Jolla, CA, USA).

[6] = mouse, plasma, ip, 10 mg/kg, AUC, FABP1-KO mice
[7] = mouse, plasma, ip, 10 mg/kg, AUC, wild-type mice
[8] = mouse, plasma, ip, 10 mg/kg, Cmax, FABP1-KO mice
[9] = mouse, plasma, ip, 10 mg/kg, Cmax, wild-type mice

SMILES	Ki (human FABP1 [1])	maximal displacement of the fluorescent probe DAUDA (human FABP1 [1])	Cmax ([2]; brain, FABP1-KO mice)	AUC ([2]; brain, FABP1-KO mice)	Cmax ([2]; brain, wild-type mice)	AUC ([2]; brain, wild-type mice)	AUC [2, 6]	AUC [2, 7]	Cmax [2, 8]	Cmax [2, 9]	further results
CCCCCCC(C)(C)c1cc(O)c2c(c1)OC(C)(C)[C@@H]1CC=C(C(=O)O)C[C@@H]21 [AJA, ajulemic acid]	26 ± 3.8 µM	fully displace DAUDA									
CCCCCc1cc(O)c2c(c1)OC(C)(C)[C@@H]1CCC(C)=C[C@@H]21 [THC, ∆^9-tetrahydrocannabinol]	2.93 ± 0.27 µM	~50%	881.9 ± 574.1 pmol/g	7363 ± 949.0 pmol·h/g	531.0 ± 71.35 pmol/g	1446 ± 411.7 pmol·h/g	25200 ± 7330 ng·h/mL	11500 ± 2080 ng·h/mL	34800 ± 2000 ng/mL	13600 ± 2620 ng/mL	increase in the brain AUC, FABP1-KO compared to WT ([2]; brain): ~ 6 fold; effect on spontaneous home-cage motility [3]: significant decrease in overall motility; maximum mean body temperature change ([4]; FABP1-KO females): −8.1 °C; maximum mean body temperature change ([4]; FABP1-KO males): −7.4 °C; maximum mean body temperature change ([4]; WT females): −4.8 °C; maximum mean body temperature change ([4]; WT males): −4.8 °C
CCCCCc1cc(O)c2c(c1)OC(C)(C)C1CCC(C(=O)O)=CC21 (stereo not shown) [THC-COOH, 11-nor-9-carboxy-Δ^9-tetrahydrocannabinol]	11.2 ± 0.7 µM		50.02 ± 3.16 pmol/g	522.6 ± 194.4 pmol·h/g	58.33 ± 1.21 pmol/g	362.8 ± 36.94 pmol·h/g	544 ± 21.2 ng·h/mL	506 ± 51.4 ng·h/mL	78.7 ± 2.26 ng/mL	87.1 ± 5.21 ng/mL	M/P: metabolite to parent (THC) ratio (AUCm/AUCp) ([2]; brain, FABP1-KO mice): 0.071; lower THC-COOH/THC ratio (AUCTHC-COOH/AUCTHC) in FABP1-KO brains vs WT ([2]; brain): 3–4 fold; ∆tmax (later maximal level in FABP1-KO brain vs WT) ([2]; brain): 4 h; M/P: metabolite to parent (THC) ratio (AUCm/AUCp) ([2]; brain, wild-type mice): 0.251; M/P: metabolite to parent (THC) ratio (AUCm/AUCp) ([2]; plasma, FABP1-KO mice): 0.0215; M/P: metabolite to parent (THC) ratio (AUCm/AUCp) ([2]; plasma, wild-type mice): 0.0440
CCCCCCCCCCCCCCCC(=O)NCCO [PEA, Palmitoylethanolamide]											remaining DAUDA fluorescence (human FABP1 [1]; at 50 µM): 101.8 ± 3.3 % fluorescence
CCCCCc1cc(O)c2c(c1)OC(C)(C)C1CCC(CO)=CC21 (stereo not shown) [11-OH-THC, 11-hydroxy-Δ^9-tetrahydrocannabinol]	7.12 ± 0.79 µM		243.6 ± 114.3 pmol/g	1244 ± 314.6 pmol·h/g	484.4 ± 207.8 pmol/g	1327 ± 329.3 pmol·h/g	112 ± 18.4 ng·h/mL	59.4 ± 14.6 ng·h/mL	50.6 ± 11.8 ng/mL	29.5 ± 6.17 ng/mL	time remaining at detectable levels longer in FABP1-KO than in wild-type ([2]; brain and plasma): 1 to 2 h; M/P: metabolite to parent (THC) ratio (AUCm/AUCp) ([2]; brain, FABP1-KO mice): 0.169; M/P: metabolite to parent (THC) ratio (AUCm/AUCp) ([2]; brain, wild-type mice): 0.918; M/P: metabolite to parent (THC) ratio (AUCm/AUCp) ([2]; plasma, FABP1-KO mice): 0.0044; M/P: metabolite to parent (THC) ratio (AUCm/AUCp) ([2]; plasma, wild-type mice): 0.0052
C=C(C)[C@@H]1CCC(C)=C[C@H]1c1c(O)cc(CCCCC)cc1O [CBD, cannabidiol]		~50%									Ki (human FABP1 [1]; FABP1 3 μM, DAUDA 500 nM, 25 °C, 20 min, pH 7.6, read-out: Ki (DAUDA displacement from FABP1)): 3.95 ± 0.65 µM
CN(C)c1cccc2c(S(=O)(=O)NCCCCCCCCCCC(=O)O)cccc12 [DAUDA, 11-(Dansylamino)unadecanoic acid]											Kd (human FABP1 [5]): 1.07 ± 0.17 µM
CCCCCCCC/C=C\CCCCCCCC(=O)O [oleic acid]											DAUDA displacement (human FABP1 [1]; at 10 µM): 96.5 ± 0.15 % displacement
